Biological target: T1, HassOR31/HassORco (Helicoverpa assulta, UniProt A0A7D3UMA0)
T1 construct: with Odorant receptor coreceptor
T1 sequence (A0A7D3UMA0 1-395): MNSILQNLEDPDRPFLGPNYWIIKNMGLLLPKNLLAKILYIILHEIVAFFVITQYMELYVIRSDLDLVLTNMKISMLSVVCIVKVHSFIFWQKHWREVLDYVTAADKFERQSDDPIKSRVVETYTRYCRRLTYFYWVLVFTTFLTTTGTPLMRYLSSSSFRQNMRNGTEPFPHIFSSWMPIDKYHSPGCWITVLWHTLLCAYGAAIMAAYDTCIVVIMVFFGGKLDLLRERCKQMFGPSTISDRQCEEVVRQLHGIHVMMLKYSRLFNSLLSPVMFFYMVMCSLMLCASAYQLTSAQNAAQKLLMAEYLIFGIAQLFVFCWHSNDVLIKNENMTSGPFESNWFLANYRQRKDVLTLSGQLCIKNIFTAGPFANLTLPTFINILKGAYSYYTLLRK
T1 sequence (A7UGE1 1-473 partner): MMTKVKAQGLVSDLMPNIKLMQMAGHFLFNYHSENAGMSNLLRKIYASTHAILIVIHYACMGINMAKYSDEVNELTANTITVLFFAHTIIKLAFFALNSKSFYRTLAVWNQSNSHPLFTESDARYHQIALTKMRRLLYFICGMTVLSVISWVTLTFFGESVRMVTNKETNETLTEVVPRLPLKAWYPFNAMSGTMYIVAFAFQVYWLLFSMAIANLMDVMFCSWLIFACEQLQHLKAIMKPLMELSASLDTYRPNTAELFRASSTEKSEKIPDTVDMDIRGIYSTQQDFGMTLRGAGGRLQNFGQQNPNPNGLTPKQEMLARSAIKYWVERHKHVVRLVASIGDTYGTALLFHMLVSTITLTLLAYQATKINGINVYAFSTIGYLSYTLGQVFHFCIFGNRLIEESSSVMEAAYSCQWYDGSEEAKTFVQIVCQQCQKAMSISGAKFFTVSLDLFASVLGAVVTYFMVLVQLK
Assay: two-electrode voltage clamp, Xenopus oocytes, inward current
Type: cell-based

`CC/C=C\CCOC(=O)CCC` [Z-3-hexenyl butyrate] gave an EC50 of 16.1 µM.
